Reference: US20170022201A1, “MACROCYLIC PYRIDINE DERIVATIVES” (Janssen Pharmaceutica NV, priority 2014, published 2017)

Assays:
EF2K = target: T1, EF2K (Homo sapiens, UniProt O00418); experiment: Biochemical EF2K lysate-based kinase assay (AlphaLISA p-eEF2 Thr56); settings: LN-229 cell lysates, 10 mM ATP, pH 6.6; pIC50 = -log IC50 (M); read-out: eEF2K_C_alphalisa pIC50 (converted)
T1 construct: host or cells: LN-229 glioblastoma cell lysate
T1 sequence (O00418 1-725): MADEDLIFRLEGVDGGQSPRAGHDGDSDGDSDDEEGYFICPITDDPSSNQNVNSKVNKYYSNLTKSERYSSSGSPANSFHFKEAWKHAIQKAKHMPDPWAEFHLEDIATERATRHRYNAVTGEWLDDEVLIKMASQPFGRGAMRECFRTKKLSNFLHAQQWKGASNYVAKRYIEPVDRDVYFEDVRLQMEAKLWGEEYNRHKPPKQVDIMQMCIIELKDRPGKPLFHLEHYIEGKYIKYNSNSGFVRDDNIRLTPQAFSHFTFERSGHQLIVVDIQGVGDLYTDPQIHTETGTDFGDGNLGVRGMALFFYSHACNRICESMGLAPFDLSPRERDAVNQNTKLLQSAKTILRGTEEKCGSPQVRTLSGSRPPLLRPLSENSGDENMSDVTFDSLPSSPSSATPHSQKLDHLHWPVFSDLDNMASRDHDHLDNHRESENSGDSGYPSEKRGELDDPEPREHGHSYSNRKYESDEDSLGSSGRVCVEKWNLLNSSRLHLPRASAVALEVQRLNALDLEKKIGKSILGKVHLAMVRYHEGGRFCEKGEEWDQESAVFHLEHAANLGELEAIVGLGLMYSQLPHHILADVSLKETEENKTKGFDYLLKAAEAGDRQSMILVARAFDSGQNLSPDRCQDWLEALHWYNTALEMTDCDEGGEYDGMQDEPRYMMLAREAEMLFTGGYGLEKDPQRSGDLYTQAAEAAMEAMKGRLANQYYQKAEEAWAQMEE
From the text: LN-229 cells were purchased from ATCC (CRL-2611); these are glioblastoma cells. Cell lysates from LN229 were used in this kinase assay to provide both the kinase and the substrate (EF2). The AlphaLISA p-eEF2 (Thr56) detection assay was developed using a sandwich assay format with two specific antibodies recognizing different epitopes of the target, including one antibody against the phosphorylation site of interest. One anti-eEF2 antibody was conjugated onto AlphaLISA Acceptor beads, while the second antibody was biotinylated and captured by streptavidin coated Donor beads.
Compound was mixed with LN-229 cell lysates in the presence of a kinase buffer (e.g. HEPES) at a pH of 6.6, containing 10 mM Mg^2+ (e.g. magnesium acetate) and 10 mM adenosine-tri-phosphate (ATP) and incubated at room temperature for 15 minutes. The kinase reaction was stopped with excess ethylenediaminetetraacetic acid disodium salt and the biotinylated-anti phospho eEF2 antibody (3 nM) was added for 1 hour. Then the anti-EF2 acceptor beads (10 μg/ml) as well as the streptavidin coated donor beads (20 μg/ml) were added for 1 hour, and the AlphaLISA signal was measured in an Envision instrument once, left overnight, and measured again for the final read.

eEF2K = target: T2, eEF2K (Homo sapiens, UniProt O00418); experiment: EF2K cell-based assay (P-EF2 AlphaLISA, 2-deoxyglucose stimulated MCF10A cells); settings: 2.5 mM 2-deoxyglucose 4 h, phosphorylation of EF2 at Thr 56, pIC50 = -log IC50 (M), read-out: eEF2K_C_PThr56 pIC50 (converted)
T2 construct: in the immortalized epithelial breast cell lines, MCF10A; host or cells: MCF10A immortalized breast epithelial cells
T2 sequence (O00418 1-725): T1 sequence (O00418 1-725)
Procedure: In this assay, 2.5 mM 2-deoxyglucose was used to deplete intracellular ATP and activate 5′ adenosine monophosphate-activated protein kinase (AMPK) in the immortalized epithelial breast cell lines, MCF10A. MCF 10A cells were purchased from ATCC (CRL-10317).
MCF10A cells are seeded at a density of 1.25×10^5 Cells/ml at 100 μl/well in a 96-well plate and incubated for 24 hours (37° C., 5% CO2). Compound is added for 1 hour, and cell are stimulated with 2.5 mM of 2-deoxy-glucose for 4 hours. Medium is then removed, and cells are lysed in an ice-cold buffer M-PER (Thermo Scientific, 78501), containing protease and phosphatase inhibitors. P-EF2 levels are determined in these lysates using the P-EF2 AlphaLISA described above.

Structure (SMILES) | IC50 (EF2K) | IC50 (eEF2K)
CN1c2cccc(c2)Nc2cc(ccn2)-c2cnc(nc2)NCCCNC(=O)C2(CC2)N2CCC1CC2 [Compound 102] | 8.13e-08 M | 1.32e-06 M
O=C1NCCC2CC(O)CN2c2ncc(cn2)-c2ccnc(c2)Nc2cccc(c2)OC2CCN(CC2)C12CC2 (centres unmarked) [Compound 97] | 1.82e-09 M | 3.31e-07 M
O=C1CN2CCCC(CC2)Oc2cccc(c2)Nc2cc(ccn2)-c2cnc(nc2)NCCCN1 (centres unmarked) [Compound 94] | 6.61e-08 M | 6.76e-07 M
O=C1CN2CCN(CC2)Cc2cccc(c2)Nc2cc(ccn2)-c2ccc(nc2)N2CCCC2CCN1 (centres unmarked) [Compound 141] | – | ~3.63e-06 M
CC(=O)NCCCCC1C(=O)NCCCNc2ncc(cn2)-c2ccnc(c2)Nc2cccc(c2)CN2CCN1CC2 (centres unmarked) [Compound 109] | 3.55e-07 M | > 1e-05 M
O=C1NCCCNc2ncc(cn2)-c2ccnc(c2)Nc2cccc(c2F)CN2CCN(CC2)C12CC2 [Compound 20] | 3.98e-09 M | 1.66e-07 M
O=C1CN2CCN(CC2)Cc2cccc(c2)Nc2cc(ccn2)-c2cnc(nc2)NC(CC2CC2)CCN1 (centres unmarked) [Compound 125] | 5.75e-06 M | > 1e-05 M
O=C1NCCC2CC(O)CN2c2ncc(cn2)-c2ccnc(c2)Nc2cccc(c2)CN2CCN(CC2)C12COC2 (centres unmarked) [Compound 63] | 1.95e-08 M | 1.74e-06 M
O=C1CN2CCN(CC2)Cc2cccc(c2)Nc2cc(ccn2)-c2ccc(nc2)CNCCN1 [Compound 145] | ~5.5e-06 M | > 1e-05 M
[N-]=[N+]=N[C@@H]1C[C@H]2CCNC(=O)CN3CCN(CC3)Cc3cccc(c3)Nc3cc(ccn3)-c3cnc(nc3)N2C1 [Compound 82] | 1.86e-08 M | 7.08e-07 M
O=C1CN2CCN(CC2)Cc2cccc(c2)Nc2cc(ccn2)-c2cnc(nc2)N2CCC2CCN1 (centres unmarked) [Compound 49] | 2.51e-05 M | > 1e-05 M
O=C1CN2CCN(CC2)Cc2cccc(c2)Nc2cc(ccn2)-c2cnc(nc2)N2CC(F)CC2CCN1 (centres unmarked) [Compound 80] | 1e-08 M | 6.31e-07 M
O=C1CN2CCC(CC2)Oc2cccc(c2F)Nc2cc(ccn2)-c2cnc(nc2)NCCCN1 [Compound 91] | 1.35e-08 M | 7.24e-07 M
CN1c2cccc(c2F)Nc2cc(ccn2)-c2cnc(nc2)NCCCNC(=O)C2(CC2)N2CCC1CC2 [Compound 103] | 1.91e-07 M | 1.62e-06 M
CC1c2cccc(c2F)Nc2cc(ccn2)-c2cnc(nc2)NCCCNC(=O)C2(CC2)N2CCN1CC2 (single isomer, unassigned) [Compound 11] | 2.75e-09 M | 2.88e-07 M
O=C1CN2CCN(CC2)Cc2cccc(c2)Nc2cc(ccn2)-c2cnc(nc2)N2CC=CC2CCN1 (centres unmarked) [Compound 81] | 4.9e-09 M | 3.09e-07 M
O=C1CN2CCC(C2)Oc2cccc(c2)Nc2cc(ccn2)-c2cnc(nc2)NCCCN1 (centres unmarked) [Compound 93] | 7.94e-08 M | 6.31e-07 M
NC1CC2CCNC(=O)C3(CC3)N3CCN(CC3)Cc3cccc(c3)Nc3cc(ccn3)-c3cnc(nc3)N2C1 (centres unmarked) [Compound 85] | 2.75e-08 M | 1.1e-06 M
CC1c2cccc(c2)Nc2cc(ccn2)-c2cnc(nc2)NCCCNC(=O)C2(CC2)N2CCN1CC2 (single isomer, unassigned) [Compound 22] | ~1.05e-08 M | 3.63e-07 M
CC1c2cccc(c2F)Nc2cc(ccn2)-c2cnc(nc2)NCCCNC(=O)C2(CC2)N2CCN1CC2 (single isomer, unassigned) [Compound 12] | 1.45e-07 M | > 1e-05 M
CC(=O)NCCCOCC1CN2CCN1Cc1cccc(c1)Nc1cc(ccn1)-c1cnc(nc1)NCCCNC(=O)C2 (centres unmarked) [Compound 149] | 6.31e-06 M | > 1e-05 M

Structure (SMILES) | IC50 (EF2K) | IC50 (eEF2K)
NCCCCC1C(=O)NCCCNc2ncc(cn2)-c2ccnc(c2)Nc2cccc(c2)CN2CCN1CC2 (centres unmarked) [Compound 113] | – | 5.5e-06 M
CN1c2cccc(c2F)Nc2cc(ccn2)-c2cnc(nc2)N2CC(O)CC2CCNC(=O)C2(CC2)N2CCC1CC2 (centres unmarked) [Compound 105] | – | 7.94e-07 M
O=C1NCCC2CC(O)CN2c2ncc(cn2)-c2ccnc(c2)Nc2cccc(c2F)OC2CCN(CC2)C12CC2 (centres unmarked) [Compound 96] | 3.98e-09 M | 8.13e-08 M
CC(=O)NCCCOCC1CN2CCN1Cc1cccc(c1)Nc1cc(ccn1)-c1cnc(nc1)NCCCNC(=O)C2 (centres unmarked) [Compound 115] | 1.51e-07 M | 4.37e-07 M
O=C1CN2CCN(CC2)Cc2cccc(c2)Nc2cc(ccn2)-c2cnc(nc2)C2CCCN2CCN1 (single isomer, unassigned) [Compound 138] | ~1.58e-06 M | –
CC1c2cccc(c2F)Nc2cc(ccn2)-c2cnc(nc2)N2CC(O)CC2CCNC(=O)C2(CC2)N2CCN1CC2 (centres unmarked) [Compound 52] | 5.37e-09 M | 7.59e-08 M
COCCN1CCNC(=O)CN2CCN(CC2)Cc2cccc(c2)Nc2cc(ccn2)-c2cnc(nc2)C1 [Compound 129] | 2.69e-05 M | > 1e-05 M
O=C1CN2CCN(CC2)Cc2cc(ccn2)Nc2cc(ccn2)-c2cnc(nc2)N2CC(O)CC2CCN1 (centres unmarked) [Compound 51] | – | ~1e-05 M
O=C1CN2CCC(CC2)Oc2cccc(c2)Nc2cc(ccn2)-c2cnc(nc2)N2CC(O)CC2CCN1 (centres unmarked) [Compound 99] | 3.09e-08 M | 1.07e-06 M
CC1NCCNC(=O)CN2CCN(CC2)Cc2cccc(c2)Nc2cc(ccn2)-c2cnc1nc2 (centres unmarked) [Compound 134] | 1.12e-05 M | > 1e-05 M
O=C1CN2CCN(CC2)Cc2cc(ccc2F)Nc2cc(ccn2)-c2cnc(nc2)N2CC(O)CC2CCN1 (centres unmarked) [Compound 50] | 1.02e-08 M | 3.55e-07 M
CC1NCCNC(=O)CN2CCN(CC2)Cc2cccc(c2)Nc2cc(ccn2)-c2cnc1nc2 (centres unmarked) [Compound 133] | > 3.02e-05 M | ~1e-05 M
N#CC1CC2CCNC(=O)C3(CC3)N3CCN(CC3)Cc3cccc(c3)Nc3cc(ccn3)-c3cnc(nc3)N2C1 (centres unmarked) [Compound 79] | 9.77e-08 M | 1.15e-06 M
O=C1CN2CCN(CC2)Cc2cccc(c2)Nc2cc(ccn2)-c2cnc(nc2)C2CCCN2CCN1 (single isomer, unassigned) [Compound 139] | 7.59e-06 M | > 1e-05 M
O=C1NCCCNc2ncc(cn2)-c2ccnc(c2)Nc2cccc(c2F)OC2CCN(CC2)C12CC2 [Compound 89] | ~4.47e-09 M | 3.24e-07 M
CCCN1CCNC(=O)CN2CCN(CC2)Cc2cccc(c2)Nc2cc(ccn2)-c2ccc(nc2)C1 [Compound 147] | 3.98e-07 M | 1.05e-06 M
O=C1NCCCNc2ncc(cn2)-c2ccnc(c2)Nc2cccc(c2)OC2CCN(CC2)C12CC2 [Compound 95] | 6.76e-09 M | ~6.46e-07 M
O=C1NCCC2CC(O)CN2c2ncc(cn2)-c2ccnc(c2)Nc2cccc(c2)CN2CCN(CC2)C12COC2 (centres unmarked) [Compound 64] | 5.13e-09 M | 3.89e-07 M
CN1CCCNc2ccc(cn2)-c2ccnc(c2)Nc2cccc(c2)CN2CCN(CC2)CC1=O [Compound 69] | 1.41e-05 M | > 3.02e-05 M
O=C1CN2CC(C2)Oc2cccc(c2)Nc2cc(ccn2)-c2cnc(nc2)NCCCN1 [Compound 92] | 1.26e-07 M | 1.17e-06 M
